Earlier results as cited in publication PMC11390321 (Cancer chemotherapy and pharmacology, 2024).

Conditions: tumor-bearing mice, orally administered; cited from earlier work

C[C@@H]1COCCN1c1cc(C2([S@](C)(=N)=O)CC2)nc(-c2cc[nH]c3nccc2-3)n1 [ceralasertib]
bone marrow exposure relative to plasma: 4.60 fold
